Measurements published in paper PMC11001683 (European Journal of Clinical Pharmacology, 2024).

Key:
[1] = ACD855 clinical signs in dogs; assay type: in vivo
[2] = ACD855 Phase I SAD study, cohort 1, plasma pharmacokinetics; assay type: in vivo; settings: human, 1 mg oral
Procedure: (§1) The clinical efficacy, safety, and pharmacokinetics (PK) of ACD855 have been evaluated in various domestic animals for the use as a veterinary drug. […] Based on pharmacology studies in rodents and safety studies in rat and dog, the first oral dose in an initiated Phase I single ascending dose (SAD) study (EudraCT No. 2018-002320-16), in healthy volunteers was set to 1 mg. […] The study was prematurely terminated after interim PK analysis of the first cohort, and long-term follow-up of the dosed subjects was performed.

[3] = mice; cited from earlier work
[4] = design: method as in PMID 37394539; settings: cited from earlier work
[5] = ACD855 mutagenic/genotoxic potential
Procedure: as §1

[6] = Allometric scaling prediction of ACD855 elimination half-life in man; design: species or system human
Procedure: as §1

Question: What does the source list for `Cc1cc(-n2c(=O)[nH]c(=O)n(C)c2=O)ccc1Oc1ccc(S(=O)(=O)C(F)(F)F)cc1` [ACD855, Ponazuril]?
Answer: notable clinical signs in dogs [1]: gastrointestinal disturbance; concentration at 280 days ([2]; all subjects but one, detection limit 1 ng/mL, read-out: plasma level at 280 days): > 1 ng/mL; half-life ([2]; cohort 1, healthy volunteers, read-out: elimination half-life in plasma in humans, average (converted)): 68 days; effect in preclinical in vivo cognition models [3]: pro-cognitive effects; effect in the forced swim test model [4]: anti-depressant-like effects; mutagenic or genotoxic potential [5]: no indication of any mutagenic or genotoxic potential; predicted elimination half-life in man [6]: 4.6 days
